Data as given in US7879835B2 (Korea Research Institute of Chemical Technology, priority 2004, dated 2011).
Where two headings read alike, the source gives them in different places.

Columns and labels:
[1] = test system: osteoclast (TRAP-positive multinuclear cell) formation; test: Inhibitory effect on osteoclast formation (TRAP staining); type: cell-based, mice; details: Mus musculus, Osteoclast, compared to control, read-out: Osteoclast formation inhibitory effects (%)
In short: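 Non-adherent bone marrow cells from 7–9-week-old female mice, 2×10^5 per well, cultured 8 days with M-CSF (20 ng/ml), RANKL (30 ng/ml) and compound at 0.3, 1.0 or 3 μM. Formation scored by TRAP staining after fixation, 1 h at 37 °C, pH 5.0.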

MG-63 cells = test: Cytotoxicity test against osteoblast (MTT); type: cell-based, human
In short: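 MG-63 human osteosarcoma cells exposed to 0.1, 0.3, 1.0 and 3.0 μM compound in DMEM with 10% FBS. Osteoclast progenitors in the same text were run at 2, 4 and 8 μM, 48 h, α-MEM + 20 ng/ml M-CSF, 37 °C; MTT added 3 h before end, A550 as % of control.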

osteoclasts = test: Inhibitory effect on resorption activity of osteoclast (resorption pit area on calcium phosphate-coated plate); type: cell-based, mice; details: compared to control
Experimental: After finishing culture, the plate was washed with distilled water, and 50 μl/well of 5% sodium hypochlorite was added to the plate. The plate was let alone for 5 min, washed again with distilled water to remove the adherent cells, and dried at room temperature. Then, the area of formed resorption pits was calculated by means of Image Pro Plus software (Media Cybernetics Ver. 3.0).

Row | SMILES | inhibition at 0.1 µM ([1]; 0.1 μM (Table 4b)) [%] | inhibition at 0.3 µM ([1]; 0.3 μM (Table 4b)) [%] | inhibition at 1 µM ([1]; 1 μM (Table 4b)) [%] | inhibition at 3 µM ([1]; 3 μM (Table 4b)) [%] | relative absorbance (MTT) relative to control (set as 100) (MG-63 cells; 0.33 μM compound) | relative absorbance (MTT) relative to control (set as 100) (MG-63 cells; 1 μM compound) | relative absorbance (MTT) relative to control (set as 100) (MG-63 cells; 3 μM compound) | inhibition at 0.3 µM ([1]; 192 h, 0.3 μM, 8 days culture with M-CSF and RANKL) [%] | inhibition at 1 µM ([1]; 192 h, 1.0 μM, 8 days culture with M-CSF and RANKL) [%] | inhibition at 3 µM ([1]; 192 h, 3.0 μM, 8 days culture with M-CSF and RANKL) [%] | Reduction (%) of the resorption pit area of osteoclasts (osteoclasts; 0.3 uM) [%] | Reduction (%) of the resorption pit area of osteoclasts (osteoclasts; 1 uM) [%] | Reduction (%) of the resorption pit area of osteoclasts (osteoclasts; 3 uM) [%] | relative absorbance relative to that of the control (set as 100), MTT (MG-63 cells; 0.11 uM) | relative absorbance relative to that of the control (set as 100), MTT (MG-63 cells; 0.33 uM) | relative absorbance relative to that of the control (set as 100), MTT (MG-63 cells; 1 uM) | relative absorbance relative to that of the control (set as 100), MTT (MG-63 cells; 3 uM)
1 | CO/C=C(/C(=O)OC)c1ccccc1COc1cccc(N2CCCCC2)c1 [Compound No. 388, (E)-methyl-2-[2-((3-(piperidin-1-yl)phenoxy)methyl)phenyl]-3-methoxyacrylate] | 0 | 99 | 100 | 100 | 105 | 84 | 81 |  |  |  |  |  |  |  |  |  | 
2 | CO/C=C(/C(=O)OC)c1ccc(Cl)cc1COc1ccc(OCCOC)cc1 [Compound No. 274, (E)-methyl-2-(2-((4-(2-methoxyethoxy)phenoxy)methyl)-4-chlorophenyl)-3-methoxyacrylate] |  |  |  |  |  |  |  | 100 | 100 | 100 | 100 | 100 | 100 | 113 | 108 | 106 | 94
